Laboratory results reported in paper PMC8728441, “Biosynthesis of the redox cofactor mycofactocin is controlled by the transcriptional regulator MftR and induced by long-chain acyl-CoA species” (The Journal of Biological Chemistry, 2021).

Tests used:
MftR–Omft complex = assay: Competitive EMSA screen for effectors of MftR; type: binding, Mycobacterium smegmatis mc^2155; conditions: 6-FAM Omft 0.5 μM, MftR 5 μM, effectors 100 μM
Method: Next, we assessed which metabolites activate MftR and thus could induce MFT production. To do so, we carried out competitive EMSAs where FAM-labeled Omft and MftR were incubated in the presence of potential effectors. We initially chose our effectors based on cholesterol catabolism, a process that putatively includes MFT biosynthetic genes ([38]). […] Knowing that TFRs have a propensity to be activated by fatty acyl-CoAs ([20]), we expanded our effector screening to include short-chain, medium-chain, and long-chain acyl-CoAs.
Figure 4 Effectors of MftR.A, an EMSA used to screen effectors of MftR. The 6-FAM–labeled Omft region (0.5 μM) was incubated with the MftR (5 μM) in the absence or the presence of effectors (100 μM). Protein–DNA complexes were separated by electrophoresis on 5% polyacrylamide gel. […] B, a representative isothermal titration calorimetry thermogram for the binding of the oleoyl-CoA to MftR regulator (blue) and the control of oleoyl-CoA into buffer (red). Each peak corresponds to the injection of 2.22 μl of 250 μM oleoyl-CoA into the cell containing 16 μM MftR or buffer. The integrated thermogram (blue dots) was fitted to a single-site binding model (black line) to determine the Kd. […] C, a bar graph depicting the ITC measured Kds for various acyl-CoAs. Bars represent the mean of three independent experiments, and the error bars represent the standard deviation of the experiments. 6-FAM, 6-carboxyfluorescein; ITC, isothermal titration calorimetry; Omft, mft operator.
His-tagged MftR was used to assess the protein binding to Pmft–MftA promoter fragment. DNA was mixed with increasing concentrations of the MftR protein in the reaction buffer (50 mM Hepes, 50 mM NaCl 0.1 mM EDTA, and pH 7.5) and incubated at room temperature for 10 min. The reactions were resolved by electrophoresis on a 5% (v/v) nondenaturing polyacrylamide gel in 1× Tris/borate/EDTA buffer at 200 V for 20 min on ice. Prior to the analysis, the gel was prerun for 30 min at 150 V on ice. Results were visualized by GelRed and recorded using Azure Biosystems 600 imaging system.

MftR (WT) = MftR (WT) (Mycolicibacterium smegmatis, UniProt A0QSB5); assay: ITC binding of acyl-CoAs to MftR; set-up: species or system Mycobacterium smegmatis mc^2155
Method: ITC was performed using TA Nano ITC. MftR was loaded in the sample cell at the concentration of 16 and 250 μM acyl-CoAs (C12–C18) loaded in the syringe. To minimize the effect of buffer mismatch, the stock concentration of acyl-CoAs was prepared using ITC buffer (50 mM Hepes, 50 mM NaCl, and pH 7.5), and the pH was adjusted to within 0.05 units. In addition, MftR was buffer exchanged into ITC buffer using a PD-10 column (GE Life Sciences). The volume of the titrant added at each injection into the sample cell was 2.22 μl. The time interval between the successive injections was 180 s. The temperature of the cell was kept at 25 °C. The data obtained were fit by independent one-site model using NanoAnalyze Data Analysis, version 3.8.0, that was provided with the instrument.

[1] = system: mft BGC (MftA–mCherry reporter); assay: Spot test growth analysis with Pmft–pCherry reporter; type: cell-based, Mycobacterium smegmatis mc^2155; conditions: 7H9 with 0.05% w/v each glucose and OA, compared with glucose alone
Method: To directly establish that oleoyl-CoA induces MFT biosynthesis in vivo, a colony dilution experiment was carried out using Msmeg transformed with Pmft–pCherry grown on Middlebrook 7H9 (7H9) supplemented with glucose or oleic acid (OA). We used OA in the growth media since it is well known that bacterial fatty acid shuttle systems convert free fatty acids to the corresponding acyl-CoAs and since Msmeg encodes for at least two known fatty acid transporters ([48], [49]). […] To assess when this occurs in real time, growth curve assays with Msmeg/Pmft–pCherry were carried out. […] We observed the same effect when OA was added to the media after 12 h of incubation. Next, we determined if MFT induction is dependent on the concentration of OA. We carried out a titration series of growth curves where 7H9 media were supplemented with 0.05% w/v glucose and 0.01, 0.02, 0.05, or 0.1% w/v OA. […]
Figure 6 Induction of MFT biosynthesis by oleoyl-CoA in vivo. […] Fluorescence images were obtained simultaneously from two different petri dishes using 585 nm excitation and 635 nm emission wavelengths. […]
A single time point growth assay was standardized for the growth of Msmeg on 7H9 agar plates with various carbon sources supplemented. […] The absorbance was measured and converted to colony-forming units (CFUs) using the standard 3.13 × 10^7 CFU·ml^−1·absorbance^−1 conversion factor ([58]). […]

[2] = system: mft BGC (MftA–mCherry reporter); assay: Growth curve assays with Msmeg/Pmft–pCherry; type: cell-based, Mycobacterium smegmatis mc^2155
Method: To directly establish that oleoyl-CoA induces MFT biosynthesis in vivo, a colony dilution experiment was carried out using Msmeg transformed with Pmft–pCherry grown on Middlebrook 7H9 (7H9) supplemented with glucose or oleic acid (OA). We used OA in the growth media since it is well known that bacterial fatty acid shuttle systems convert free fatty acids to the corresponding acyl-CoAs and since Msmeg encodes for at least two known fatty acid transporters ([48], [49]). […] To assess when this occurs in real time, growth curve assays with Msmeg/Pmft–pCherry were carried out. […] We observed the same effect when OA was added to the media after 12 h of incubation. Next, we determined if MFT induction is dependent on the concentration of OA. We carried out a titration series of growth curves where 7H9 media were supplemented with 0.05% w/v glucose and 0.01, 0.02, 0.05, or 0.1% w/v OA. […] However, in general, increasing concentrations of OA had little effect on the overall production of the MftA–mCherry fusion. The lack of immediate production of MftA–mCherry after the addition of OA and the concentration independence is perplexing. […] Rather, we expect that a subtler and unknown mechanism is at play.
Figure 7 Growth curve assays with Msmeg/Pmft–pCherry.A, absorbance at 600 nm measurements for the 7H9 media supplemented with 0.1% tyloxapol, 50 μg/ml hygromycin, and glucose and/or oleic acid (OA) as carbon sources. Concentrations of carbon sources were glucose only (0.1% w/v), OA only (0.1% w/v), and glucose/OA (0.05% w/v each) where OA was added after 12 h (blue arrow). B, corresponding fluorescence intensities (excitation of 585 nm/emission of 612 nm) of Msmeg/Pmft–pCherry cultures described in A. C, absorbance at 600 nm measurements for dose-dependent addition of OA to the 7H9 media supplemented with 0.05% w/v glucose and 0.01, 0.02, 0.05, 0.1% w/v of OA. D, corresponding fluorescence intensities of Msmeg/Pmft–pCherry cultures described in C. 7H9, Middlebrook 7H9; Msmeg, Mycobacterium smegmatis mc^2155; Pmft, mft promoter.
For fluorescence-based assays, a single Msmeg colony harboring Pmft–pCherry was used to inoculate 25 ml of 7H9 media supplemented with 0.1% tyloxapol, 0.1% w/v glycerol, 50 μg/ml hygromycin, and 0.1% w/v glucose. For cultures containing OA only, 0.1% w/v OA was used. […] The overnight culture was used to inoculate 7H9 media to an absorbance of 0.05 at 600 nm (1 cm pathlength) with carbon sources supplemented as described previously. […] Aliquots were taken every 2 h, and absorbance at 600 nm values were measured. To track the expression of the Pmft–pCherry fusion, fluorescence measurements were taken on a Cary Fluorimeter every 2 h using an excitation of 585 nm and an emission of 612 nm.

MftR (WT), sequence (A0QSB5 entry or part of it): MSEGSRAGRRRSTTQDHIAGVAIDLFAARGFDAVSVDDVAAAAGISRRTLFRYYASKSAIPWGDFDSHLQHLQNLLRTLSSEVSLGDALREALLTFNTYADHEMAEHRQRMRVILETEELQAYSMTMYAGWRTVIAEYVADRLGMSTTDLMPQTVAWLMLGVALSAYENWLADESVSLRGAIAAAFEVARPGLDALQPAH

`CC(C)CCC[C@@H](C)[C@H]1CC[C@H]2[C@@H]3CC=C4C[C@@H](O)CC[C@]4(C)[C@H]3CC[C@]12C` [cholesterol] was tested, and the “disruption of the MftR–Omft complex (DNA release)” value (shortened to “disruption”) (MftR–Omft complex) was “did not observe DNA release”.

For `CC(=O)CC(=O)SCCNC(=O)CCNC(=O)[C@H](O)C(C)(C)COP(=O)(O)OP(=O)(O)OC[C@H]1O[C@@H](n2cnc3c(N)ncnc32)[C@H](O)[C@@H]1OP(=O)(O)O` [acetoacetyl-CoA], the “disruption” value (MftR–Omft complex) was “did not observe DNA release”.

With succinyl-CoA the “disruption” value (MftR–Omft complex) was “did not observe DNA release”.

With `CCCCCCCCCCCCCCCCCC(=O)SCCNC(=O)CCNC(=O)[C@H](O)C(C)(C)COP(=O)(O)OP(=O)(O)OC[C@H]1O[C@@H](n2cnc3c(N)ncnc32)[C@H](O)[C@@H]1OP(=O)(O)O` [steroyl-CoA] the Kd (MftR (WT)) was 2 to 4 µM.

With `CCC(=O)SCCNC(=O)CCNC(=O)[C@H](O)C(C)(C)COP(=O)(O)OP(=O)(O)OC[C@H]1O[C@@H](n2cnc3c(N)ncnc32)[C@H](O)[C@@H]1OP(=O)(O)O` [propionyl-CoA] the “disruption” value (MftR–Omft complex) was “did not observe DNA release”.

With `CC(C)(COP(=O)(O)OP(=O)(O)OC[C@H]1O[C@@H](n2cnc3c(N)ncnc32)[C@H](O)[C@@H]1OP(=O)(O)O)[C@@H](O)C(=O)NCCC(=O)NCCS` [CoA] the “disruption” value (MftR–Omft complex) was “did not disrupt the MftR–Omft complex”.

In the case of `CCCCCCCC/C=C\CCCCCCCC(=O)O` [OA, oleic acid], the “fluorescence intensity of colonies” value [1] is reported as “starkly increased”, the “fluorescence intensity in OA titration series” value ([2]; 0.05% w/v OA with 0.05% w/v glucose, within 40 h) is reported as “highest fluorescence intensity” and the “fluorescence intensity compared with the control” value ([2]; 0.1% OA only, cultures at nearly the same absorbance) is reported as “nearly three times”. For the same compound, the fluorescence intensity ([2]; OA added to the media after 12 h of incubation (glucose/OA 0.05% w/v each)) was “same effect” and the “overall production of the MftA–mCherry fusion” value ([2]; increasing OA 0.01, 0.02, 0.05, 0.1% w/v with 0.05% w/v glucose) was “little effect”.

`CCCCCCCCCCCCCCCC(=O)SCCNC(=O)CCNC(=O)[C@H](O)C(C)(C)COP(=O)(O)OP(=O)(O)OC[C@H]1O[C@@H](n2cnc3c(N)ncnc32)[C@H](O)[C@@H]1OP(=O)(O)O` [palmitoyl-CoA] showed a Kd (MftR (WT)) of 2 to 4 µM.

`CCCCCCCCCCCCCC(=O)SCCNC(=O)CCNC(=O)[C@H](O)C(C)(C)COP(=O)(O)OP(=O)(O)OC[C@H]1O[C@@H](n2cnc3c(N)ncnc32)[C@H](O)[C@@H]1OP(=O)(O)O` [myristoyl-CoA] was tested, and the “disruption” value (MftR–Omft complex) was “disrupted the MftR–Omft complex”.

With `CCCCCCCCCCCC(=O)SCCNC(=O)CCNC(=O)[C@H](O)C(C)(C)COP(=O)(O)OP(=O)(O)OC[C@H]1O[C@@H](n2cnc3c(N)ncnc32)[C@H](O)[C@@H]1OP(=O)(O)O` [lauroyl-CoA] the “decrease in binding affinity as compared with oleoyl-CoA” value (MftR (WT); ITC, WT MftR) was roughly 10 fold.
